# In US11510920B2, “Compositions and methods for treating EZH2-mediated cancer” (Icahn School of Medicine at Mount Sinai, priority 2016, dated 2022):
# Test system: HCC1187 cells
# Assay: Proliferation assay (IncuCyte cell confluence), HCC1187
# Type: cell-based
# Settings: Homo sapiens, concentration for 50% of maximal inhibition of cell proliferation
# Method: (§1) 1-3×10^3 cells were seeded in 96-well plates in duplicates and treated at the indicated compound concentrations. Cells were monitored using the IncuCyte® live cell imaging system (Essen BioScience™, Ann Arbor, Mich.) which was placed in a cell culture incubator operated at 37° C. and 5% CO2. Cell confluence was determined using calculations derived from phase-contrast images. The concentration for 50% of maximal inhibition of cell proliferation (GI50) values were determined by fitting to a standard four-parameter logistic using GraphPad Prism® v5. Graphs depicting the GI50s of select EZH2 degraders/disruptors described here for various cancer cell lines are shown in FIGS. 4-49.
row,GI50,Structure (SMILES)
1,2 µM,"CCCc1cc(C)[nH]c(=O)c1CNC(=O)c1cc(-c2ccc(N3CCN(C(=O)CCC45CC6CC(CC(C6)C4)C5)CC3)nc2)cc2c1cnn2C(C)C [AM16-38A, 6-(6-(4-(3-((3r,5r,7r)-adamantan-1-yl)propanoyl)piperazin-1-yl)pyridin-3-yl)-1-isopropyl-N-((6-methyl-2-oxo-4-propyl-1,2-dihydropyridin-3-yl)methyl)-1H-indazole-4-carboxamide]"
2,4.3 µM,"Cc1cc(C)c(CNC(=O)c2cc(-c3ccc(N4CCN(CCCNC(=O)[C@H](C)CCC56CC7CC(CC(C7)C5)C6)CC4)nc3)cc3c2cnn3C(C)C)c(=O)[nH]1 [AM16-106A, 6-(6-(4-(3-((R)-4-((3R,5R,7R)-adamantan-1-yl)-2-methyl-butanamido)propyl)piperazin-1-yl)pyridin-3-yl)-N-((4,6-dimethyl-2-oxo-1,2-dihydro-pyridin-3-yl)methyl)-1-isopropyl-1H-indazole-4-carboxamide]"
3,2.2 µM,"Cc1cc(C)c(CNC(=O)c2cc(-c3ccc(N4CCN(CCNC(=O)CCC56CC7CC(CC(C7)C5)C6)CC4)nc3)cc3c2cnn3C(C)C)c(=O)[nH]1 [XY019-44, 6-(6-(4-(2-(3-((3r,5r,7r)-adamantan-1-yl)propanamido)ethyl)piperazin-1-yl)pyridin-3-yl)-N-((4,6-dimethyl-2-oxo-1,2-dihydropyridin-3-yl)methyl)-1-isopropyl-1H-indazole-4-carboxamide]"
4,1.5 µM,"Cc1cc(C)c(CNC(=O)c2cc(-c3ccc(N4CCN(C(=O)CCC56CC7CC(CC(C7)C5)C6)CC4)nc3)cc3c2cnn3C(C)C)c(=O)[nH]1 [AM16-93A, 6-(6-(4-(3-((1r,3s)-adamantan-1-yl)propanoyl)piperazin-1-yl)pyridin-3-yl)-N-((4,6-dimethyl-2-oxo-1,2-dihydropyridin-3-yl)methyl)-1-isopropyl-1H-indazole-4-carboxamide]"
5,1.2 µM,"Cc1cc(C)c(CNC(=O)c2cc(-c3ccc(N4CCN(C(=O)[C@H](C)CCC56CC7CC(CC(C7)C5)C6)CC4)nc3)cc3c2cnn3C(C)C)c(=O)[nH]1 [AM16-97A, 6-(6-(4-((2R)-4-((1r,3S)-adamantan-1-yl)-2-methylbutanoyl)piperazin-1-yl)pyridin-3-yl)-N-((4,6-dimethyl-2-oxo-1,2-dihydropyridin-3-yl)methyl)-1-isopropyl-1H-indazole-4-carboxamide]"
6,2.1 µM,"CCCc1cc(C)[nH]c(=O)c1CNC(=O)c1cc(-c2ccc(N3CCN(C(=O)CC45CC6CC(CC(C6)C4)C5)CC3)nc2)cc2c1cnn2C(C)C [AM16-37A, 6-(6-(4-(2-((1s,3s)-adamantan-1-yl)acetyl)piperazin-1-yl)pyridin-3-yl)-1-isopropyl-N-((6-methyl-2-oxo-4-propyl-1,2-dihydropyridin-3-yl)methyl)-1H-indazole-4-carboxamide]"
7,2.6 µM,"CCCc1cc(C)[nH]c(=O)c1CNC(=O)c1cc(-c2ccc(N3CCN(CCNC(=O)CCC45CC6CC(CC(C6)C4)C5)CC3)nc2)cc2c1cnn2C(C)C [AM16-11A, 6-(6-(4-(2-(3-((1r,3s)-adamantan-1-yl)propanamido)ethyl)piperazin-1-yl)pyridin-3-yl)-1-isopropyl-N-((6-methyl-2-oxo-4-propyl-1,2-dihydro-pyridin-3-yl)methyl)-1H-indazole-4-carboxamide]"

# Test system: MDA-MB-468 cells
# Assay: Proliferation assay (IncuCyte cell confluence), MDA-MB-468
# Type: cell-based
# Settings: Homo sapiens, concentration for 50% of maximal inhibition of cell proliferation
# Method: as §1
row,GI50,Structure (SMILES)
1,1.8 µM,"CCN(c1cc(-c2ccc(CN3CCN(CCNCCC45CC6CC(CC(C6)C4)C5)CC3)cc2)cc(C(=O)NCc2c(C)cc(C)[nH]c2=O)c1C)C1CCOCC1 [CZ40-149, 4′-((4-(2-((2-((1s,3s)-adamantan-1-yl)ethyl)amino)ethyl)piperazin-1-yl)methyl)-N-((4,6-dimethyl-2-oxo-1,2-dihydropyridin-3-yl)methyl)-5-(ethyl(tetra-hydro-2H-pyran-4-yl)amino)-4-methyl-[1,1′-biphenyl]-3-carboxamide]"
2,2.5 µM,"Cc1cc(C)c(CNC(=O)c2cc(-c3ccc(N4CCN(CCNC(=O)CCOCCNc5cccc6c5C(=O)N(C5CCC(=O)NC5=O)C6=O)CC4)nc3)cc3c2cnn3C(C)C)c(=O)[nH]1 (stereo not drawn) [AM29-177A, N-((4,6-dimethyl-2-oxo-1,2-dihydropyridin-3-yl)methyl)-6-(6-(4-(2-(3-(2-((2-(2,6-dioxopiperidin-3-yl)-1,3-dioxoisoindolin-4-yl)amino)ethoxy)propanamido)ethyl)piperazin-1-yl)pyridin-3-yl)-1-isopropyl-1H-indazole-4-carboxamide]"
3,2.3 µM,"Cc1cc(C)c(CNC(=O)c2cc(-c3ccc(N4CCN(CCNCCC56CC7CC(CC(C7)C5)C6)CC4)nc3)cc3c2c(C)cn3C(C)C)c(=O)[nH]1 [AM41-41A, 6-(6-(4-(2-((2-((3r,5r,7r)-adamantan-1-yl)ethyl)amino)ethyl)piperazin-1-yl)pyridin-3-yl)-N-((4,6-dimethyl-2-oxo-1,2-dihydropyridin-3-yl)methyl)-1-isopropyl-3-methyl-1H-indole-4-carboxamide]"
4,1.5 µM,"CCN(c1cc(-c2ccc(CN3CCN(CCNC(=O)CCSCCC[C@@H]4/C=C(\C)C[C@H](C)C[C@H](OC)[C@H]5O[C@@](O)(C(=O)C(=O)N6CCCC[C@H]6C(=O)O[C@H](/C(C)=C/[C@@H]6CC[C@@H](O)[C@H](OC)C6)[C@H](C)[C@@H](O)CC4=O)[C@H](C)C[C@@H]5OC)CC3)cc2)cc(C(=O)NCc2c(C)cc(C)[nH]c2=O)c1C)C1CCOCC1 [CZ40-131, FK506 adduct with N-((4,6-dimethyl-2-oxo-1,2-dihydropyridin-3-yl)methyl)-5-(ethyl(tetrahydro-2H-pyran-4-yl)amino)-4′-((4-(2-(3-mercaptopropanamido)ethyl)piperazin-1-yl)methyl)-4-methyl-[1,1′-biphenyl]-3-carboxamide]"
5,2.4 µM,"CO[C@H]1C[C@@H](C)C/C(C)=C/[C@@H](CCCSCCC(=O)NCCN2CCN(c3ccc(-c4cc(C(=O)NCc5c(C)cc(C)[nH]c5=O)c5cnn(C(C)C)c5c4)cn3)CC2)C(=O)C[C@H](O)[C@@H](C)[C@@H](/C(C)=C/[C@@H]2CC[C@@H](O)[C@H](OC)C2)OC(=O)[C@@H]2CCCCN2C(=O)C(=O)[C@]2(O)O[C@H]1[C@@H](OC)C[C@H]2C [XY028-086, FK506 adduct with N-((4,6-dimethyl-2-oxo-1,2-dihydropyridin-3-yl)methyl)-1-isopropyl-6-(6-(4-(2-(3-mercaptopro-panamido)ethyl)piperazin-1-yl)pyridin-3-yl)-1H-indazole-4-carboxamide]"
6,1.1 µM,"CCN(c1cc(-c2ccc(CN3CCN(CCN(CCC45CC6CC(CC(C6)C4)C5)CCC45CC6CC(CC(C6)C4)C5)CC3)cc2)cc(C(=O)NCc2c(C)cc(C)[nH]c2=O)c1C)C1CCOCC1 [CZ40-75, 4′-((4-(2-((2-((1s,3S)-adamantan-1-yl)ethyl)(2-((3R,5R,7R)-adamantan-1-yl)ethyl)amino)ethyl)piperazin-1-yl)methyl)-N-((4,6-dimethyl-2-oxo-1,2-dihydropyridin-3-yl)methyl)-5-(ethyl(tetra-hydro-2H-pyran-4-yl)amino)-4-methyl-[1,1′-biphenyl]-3-carboxamide]"

row,Structure (SMILES),GI50
1,"Cc1cc(C)c(CNC(=O)c2c(C)n([C@@H](C)C3CCN(CCNC(=O)CC4C5CC6CC(C5)CC4C6)CC3)c3ccccc23)c(=O)[nH]1 (stereo partly drawn) [XF042-90, 1-((S)-1-(1-(2-(2-((1R,3S,5S,7S)-adamantan-2-yl)acetamido)ethyl)piperidin-4-yl)ethyl)-N-((4,6-dimethyl-2-oxo-1,2-dihydropyridin-3-yl)methyl)-2-methyl-1H-indole-3-carboxamide]",7.2 µM
2,"Cc1cc(C)c(CNC(=O)c2c(C)n([C@@H](C)C3CCN(CCNCCC45CC6CC(CC(C6)C4)C5)CC3)c3ccccc23)c(=O)[nH]1 [XF042-133, 1-((S)-1-(1-(2-((2-((3S,5S,7S)-adamantan-1-yl)ethyl)amino)ethyl)piperidin-4-yl)ethyl)-N-((4,6-dimethyl-2-oxo-1,2-dihydropyridin-3-yl)methyl)-2-methyl-1H-indole-3-carboxamide]",4.9 µM
3,"COc1cc(C)[nH]c(=O)c1CNC(=O)c1c(C)n([C@@H](C)C2CCN(CCN(CCC34CC5CC(CC(C5)C3)C4)CCC34CC5CC(CC(C5)C3)C4)CC2)c2ccccc12 [XF042-95, 1-((S)-1-(1-(2-(bis(2-((3S,5S,7S)-adamantan-1-yl)ethyl)amino)ethyl)piperidin-4-yl)ethyl)-N-((4-methoxy-6-methyl-2-oxo-1,2-dihydro-pyridin-3-yl)methyl)-2-methyl-1H-indole-3-carboxamide]",2.5 µM
4,"Cc1cc(C)c(CNC(=O)c2c(C)n([C@@H](C)C3CCN(CCN(CCC45CC6CC(CC(C6)C4)C5)CCC45CC6CC(CC(C6)C4)C5)CC3)c3ccccc23)c(=O)[nH]1 [XF042-93, 1-((S)-1-(1-(2-(bis(2-((3S,5S,7S)-adamantan-1-yl)ethyl)amino)ethyl)piperidin-4-yl)ethyl)-N-((4,6-dimethyl-2-oxo-1,2-dihydropyridin-3-yl)methyl)-2-methyl-1H-indole-3-carboxamide]",2.2 µM
5,"CO[C@H]1C[C@@H](C)C/C(C)=C/[C@@H](CCCSCCC(=O)NCCN2CCC([C@H](C)n3c(C)c(C(=O)NCc4c(C)cc(C)[nH]c4=O)c4ccccc43)CC2)C(=O)C[C@H](O)[C@@H](C)[C@@H](/C(C)=C/[C@@H]2CC[C@@H](O)[C@H](OC)C2)OC(=O)[C@@H]2CCCCN2C(=O)C(=O)[C@]2(O)O[C@H]1[C@@H](OC)C[C@H]2C [XF042-92, FK506 adduct with (S)-N-((4,6-dimethyl-2-oxo-1,2-dihydropyridin-3-yl)methyl)-1-(1-(1-(2-(3-mercaptopropanamido)ethyl)piperidin-4-yl)ethyl)-2-methyl-1H-indole-3-carboxamide]",2.6 µM
